According to patent US20230151003A1, “COMPOUNDS AND METHODS OF USE” (Exelixis, Inc., priority 2020, published 2023):
pIC50: −log10 of the molar value.

Legend:
AXL = target: T1, AXL (Homo sapiens, UniProt P30530); experiment: AXL autophosphorylation ELISA in A-172 cells; type: cell-based; details: Table 3 Cellular Activities, Gas6-stimulated, phospho-AXL ELISA
T1 construct: endogenous in cells; host or cells: A-172 glioblastoma cells (ATCC #CRL-1620)
T1 sequence (P30530 26-894): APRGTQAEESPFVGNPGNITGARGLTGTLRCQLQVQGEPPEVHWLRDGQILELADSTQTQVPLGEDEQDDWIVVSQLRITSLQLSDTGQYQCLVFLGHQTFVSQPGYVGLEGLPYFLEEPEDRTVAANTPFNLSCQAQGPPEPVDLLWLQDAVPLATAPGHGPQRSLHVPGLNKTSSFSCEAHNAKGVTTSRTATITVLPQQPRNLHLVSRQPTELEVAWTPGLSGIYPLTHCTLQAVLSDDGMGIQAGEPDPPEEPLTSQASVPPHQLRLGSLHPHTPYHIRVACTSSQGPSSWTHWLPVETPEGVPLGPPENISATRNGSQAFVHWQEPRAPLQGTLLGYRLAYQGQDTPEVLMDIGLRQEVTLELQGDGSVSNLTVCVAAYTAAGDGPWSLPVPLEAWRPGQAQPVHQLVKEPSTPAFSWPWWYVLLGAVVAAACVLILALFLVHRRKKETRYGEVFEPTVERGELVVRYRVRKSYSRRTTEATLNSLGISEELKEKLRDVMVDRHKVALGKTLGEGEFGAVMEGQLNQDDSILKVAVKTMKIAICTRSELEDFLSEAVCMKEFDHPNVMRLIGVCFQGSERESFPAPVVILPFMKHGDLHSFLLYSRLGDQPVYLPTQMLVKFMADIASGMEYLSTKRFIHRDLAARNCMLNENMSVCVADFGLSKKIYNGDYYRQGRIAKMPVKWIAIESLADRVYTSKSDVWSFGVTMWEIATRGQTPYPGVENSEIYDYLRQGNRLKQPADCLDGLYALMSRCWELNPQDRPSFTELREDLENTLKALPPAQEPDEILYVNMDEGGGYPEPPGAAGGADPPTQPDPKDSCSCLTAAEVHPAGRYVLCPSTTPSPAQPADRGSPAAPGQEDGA
How it was run: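 Phospho-AXL in lysates measured by ELISA after Gas6 stimulation (1 μg/mL, 15 min) of A-172 cells pre-incubated 1 h with an 8-point compound dilution series in 0.3% DMSO after 24 h serum starvation. IC50 by 4-parameter logistic fit, with DMSO-treated and reference-inhibitor wells as 100% and 0% activity.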

Human AXL = target: T2, Human AXL (Homo sapiens, UniProt P30530); experiment: Human AXL kinase assay (HTRF KinEase); type: biochemical; details: Table 2 Biological Activities, ATP at Km (1.0 μM)
T2 construct: Human AXL (residues 464-885; CarnaBio, 1 ng/ well); purchased CarnaBio
T2 sequence (P30530 464-885 isoform P30530-2): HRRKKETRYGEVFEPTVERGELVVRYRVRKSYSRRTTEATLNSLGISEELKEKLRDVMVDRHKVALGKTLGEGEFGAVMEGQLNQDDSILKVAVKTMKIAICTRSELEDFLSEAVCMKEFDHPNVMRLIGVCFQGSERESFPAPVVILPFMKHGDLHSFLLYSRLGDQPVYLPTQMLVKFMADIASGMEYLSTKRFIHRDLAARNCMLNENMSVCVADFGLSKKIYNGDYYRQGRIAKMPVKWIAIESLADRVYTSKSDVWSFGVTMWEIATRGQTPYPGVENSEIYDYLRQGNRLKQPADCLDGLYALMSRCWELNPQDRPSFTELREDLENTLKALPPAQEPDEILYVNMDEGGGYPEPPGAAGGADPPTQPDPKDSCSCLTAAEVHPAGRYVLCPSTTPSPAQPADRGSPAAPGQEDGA
Protocol: Kinase activity and compound inhibition were investigated using the HTRF® KinEase assay (Cisbio Cat #62TKOPEB) per manufacturer's instructions. In short, compounds were delivered in 300 nL volumes at 10 different concentrations in DMSO (3% final) to empty 384-well assay plates (Corning cat #3824). A mixture of enzyme, 1 μM biotynlated peptide substrate, and buffer in 10 μL volume was added. The assay was started upon the addition of ATP (at Km). The 10 μL reaction was incubated at room temperature. The reaction was stopped upon the addition of detection buffer containing streptavidin-XL665 (5 μL) and TK antibody-Eu3+ (5 μL). After a 60 min incubation at room temperature, the fluorescence at 665 nm and 620 nm was read on an Envision microplate reader (Perkin Elmer). Kinase activity normalized to DMSO (100% activity) and reference compound at 1 μM and (0% activity) was calculated using the fluorescence ratio […]. IC50 values were calculated by nonlinear regression analysis using a 4-parameter logistic curve fit in ActivityBase XE (IDBS).
Human AXL (residues 464-885; CarnaBio, 1 ng/ well) was incubated with enzymatic buffer (Cisbio) supplemented with 5 mM MgCl2, 1 mM DTT, and Supplemental Enzymatic Buffer (SEB; Cisbio). The mixture was added to the pre-plated compounds. The reaction was initiated upon addition of ATP at Km (1.0 μM). The reaction was incubated at room temperature for 50 min and stopped upon the addition of SA-XL665 and TK-antibody both diluted in EDTA-containing kinase detection buffer (Cisbio). The kinase activity was calculated as stated above and the IC50 values were reported.

pIC50 (AXL) | pIC50 (Human AXL) | Structure (SMILES)
≥ 7.00 | ≥ 7.00 | COc1cc2nccc(Oc3ccc(NC(=O)c4cc(C(C)=O)c(C)n(-c5ccc(F)cn5)c4=O)cc3F)c2nc1OC [Compound 59, 5-Acetyl-N-[4-[(6,7-dimethoxy-1,5-naphthyridin-4-yl)oxy]-3-fluorophenyl]-1-(5-fluoropyridin-2-yl)-6-methyl-2-oxopyridine-3-carboxamide]
≥ 7.00 | ≥ 7.00 | COc1cc2nccc(Oc3ccc(NC(=O)c4c(C)nc(C)c(-c5ccc(F)cn5)c4O)cc3)c2nc1OC [Compound 216, N-[4-[(6,7-Dimethoxy-1,5-naphthyridin-4-yl)oxy]phenyl]-5-(5-fluoropyridin-2-yl)-4-hydroxy-2,6-dimethylpyridine-3-carboxamide]
≥ 7.00 | ≥ 7.00 | COc1ccc2nccc(Oc3ccc(NC(=O)c4ccc(C)n(-c5ncc(F)cc5C)c4=O)cc3F)c2n1 [Compound 53, N-[3-Fluoro-4-[(6-methoxy-1,5-naphthyridin-4-yl)oxy]phenyl]-1-(5-fluoro-3-methylpyridin-2-yl)-6-methyl-2-oxopyridine-3-carboxamide]
≥ 7.00 | ≥ 7.00 | COc1cc2nccc(Oc3ccc(NC(=O)c4c(C)nc(C)c(-c5ccc(F)cn5)c4O)cc3F)c2nc1OC [Compound 218, N-[4-[(6,7-Dimethoxy-1,5-naphthyridin-4-yl)oxy]-3-fluorophenyl]-5-(5-fluoropyridin-2-yl)-4-hydroxy-2,6-dimethylpyridine-3-carboxamide]
≥ 7.00 | ≥ 7.00 | COc1cc2nccc(Oc3ccc(NC(=O)c4c(C)ncc(-c5ccc(F)cn5)c4O)cc3F)c2nc1OC [Compound 68, N-[4-[(6,7-Dimethoxy-1,5-naphthyridin-4-yl)oxy]-3-fluorophenyl]-5-(5-fluoropyridin-2-yl)-4-hydroxy-2-methylpyridine-3-carboxamide]
≥ 7.00 | ≥ 7.00 | COc1cc2nccc(Oc3ccc(NC(=O)c4ccc(C)n(-c5ccncc5F)c4=O)cc3F)c2nc1OC [Compound 220, N-[4-[(6,7-Dimethoxy-1,5-naphthyridin-4-yl)oxy]-3-fluorophenyl]-1-(3-fluoropyridin-4-yl)-6-methyl-2-oxopyridine-3-carboxamide]
≥ 7.00 | ≥ 7.00 | COCc1nc(C)c(-c2ccc(F)cn2)c(O)c1C(=O)Nc1ccc(Oc2ccnc3cc(OC)c(OC)nc23)c(F)c1 [Compound 214, N-[4-[(6,7-Dimethoxy-1,5-naphthyridin-4-yl)oxy]-3-fluorophenyl]-5-(5-fluoropyridin-2-yl)-4-hydroxy-2-(methoxymethyl)-6-methylpyridine-3-carboxamid]
≥ 7.00 | ≥ 7.00 | COc1cnc2c(Oc3ccc(NC(=O)c4c(C)ncc(-c5ccccn5)c4O)cc3F)ccnc2c1 [Compound 70, N-[3-Fluoro-4-[(7-methoxy-1,5-naphthyridin-4-yl)oxy]phenyl]-4-hydroxy-2-methyl-5-pyridin-2-ylpyridine-3-carboxamide]
≥ 7.00 | ≥ 7.00 | COc1cc2nccc(Oc3ccc(NC(=O)c4ccc(C)n(-c5ccncc5)c4=O)cc3F)c2nc1OC [Compound 221, N-[4-[(6,7-Dimethoxy-1,5-naphthyridin-4-yl)oxy]-3-fluorophenyl]-6-methyl-2-oxo-1-pyridin-4-ylpyridine-3-carboxamid]
≥ 7.00 | ≥ 7.00 | COc1cc2nccc(Oc3ccc(NC(=O)c4cnc(C)c(-c5ccc(F)cn5)c4O)cc3F)c2nc1OC [Compound 85, N-[4-[(6,7-Dimethoxy-1,5-naphthyridin-4-yl)oxy]-3-fluorophenyl]-5-(5-fluoropyridin-2-yl)-4-hydroxy-6-methylpyridine-3-carboxamide]
≥ 7.00 | ≥ 7.00 | COc1cnc2c(Oc3ccc(NC(=O)c4ccc(C)n(-c5ncc(F)cc5C)c4=O)cc3F)ccnc2c1 [Compound 52, N-[3-Fluoro-4-[(7-methoxy-1,5-naphthyridin-4-yl)oxy]phenyl]-1-(5-fluoro-3-methylpyridin-2-yl)-6-methyl-2-oxopyridine-3-carboxamide]

The remaining lines, values behind:

Structure (SMILES) | pIC50 (AXL) | pIC50 (Human AXL)
COc1ccc2nccc(Oc3ccc(NC(=O)c4ccc(C)n(-c5ccc(F)cn5)c4=O)cc3F)c2n1 [Compound 47, N-[3-Fluoro-4-[(6-methoxy-1,5-naphthyridin-4-yl)oxy]phenyl]-1-(5-fluoropyridin-2-yl)-6-methyl-2-oxopyridine-3-carboxamide] | ≥ 7.00 | ≥ 7.00
COc1cc2nccc(Oc3ccc(NC(=O)c4ccc(C)n(-c5ccc(F)cn5)c4=O)cc3)c2nc1OC [Compound 44, N-[4-[(6,7-Dimethoxy-1,5-naphthyridin-4-yl)oxy]phenyl]-1-(5-fluoropyridin-2-yl)-6-methyl-2-oxopyridine-3-carboxamide] | ≥ 7.00 | ≥ 7.00
COc1cc2nccc(Oc3ccc(NC(=O)c4ccc(C)n(-c5ccc(F)cn5)c4=O)cc3F)c2nc1OC [Compound 43, N-[4-[(6,7-Dimethoxy-1,5-naphthyridin-4-yl)oxy]-3-fluorophenyl]-1-(5-fluoropyridin-2-yl)-6-methyl-2-oxopyridine-3-carboxamide] | ≥ 7.00 | ≥ 7.00
Cc1ccc(C(=O)Nc2ccc(Oc3ccnc4cccnc34)c(F)c2)c(=O)n1-c1ccc(F)cn1 [Compound 48, N-[3-Fluoro-4-(1,5-naphthyridin-4-yloxy)phenyl]-1-(5-fluoropyridin-2-yl)-6-methyl-2-oxopyridine-3-carboxamide] | ≥ 7.00 | ≥ 7.00
COc1cc2nccc(Oc3ccc(NC(=O)c4c(C)ccn(-c5ccc(F)cn5)c4=O)cc3F)c2nc1OC [Compound 41, N-[4-[(6,7-Dimethoxy-1,5-naphthyridin-4-yl)oxy]-3-fluorophenyl]-1-(5-fluoropyridin-2-yl)-4-methyl-2-oxopyridine-3-carboxamide] | ≥ 7.00 | ≥ 7.00
COc1cc2nccc(Oc3ccc(NC(=O)c4ccc(C)n(-c5ncc(F)cc5C)c4=O)cc3F)c2nc1OC [Compound 51, N-[4-[(6,7-Dimethoxy-1,5-naphthyridin-4-yl)oxy]-3-fluorophenyl]-1-(5-fluoro-3-methylpyridin-2-yl)-6-methyl-2-oxopyridine-3-carboxamide] | ≥ 7.00 | ≥ 7.00
COc1cnc2c(Oc3ccc(NC(=O)c4ccc(C)n(-c5ccc(F)cn5)c4=O)cc3F)ccnc2c1 [Compound 45, N-[3-Fluoro-4-[(7-methoxy-1,5-naphthyridin-4-yl)oxy]phenyl]-1-(5-fluoropyridin-2-yl)-6-methyl-2-oxopyridine-3-carboxamide] | ≥ 7.00 | ≥ 7.00
